Measured values reported in ChEMBL document CHEMBL6178016, “Design, Synthesis, and Biological Evaluation of New PDE4 Inhibitors for the Treatment of Pressure Ulcers” (J Med Chem, 2025).
Activity calls are given as the source filed them. No cut-off for these calls is given here.

How the values were obtained:
[1] = target: 3',5'-cyclic-AMP phosphodiesterase 4D (Homo sapiens, UniProt Q08499); assay: Inhibition of PDE4D (unknown origin)
[2] = test system: RAW264.7; assay: Antiinflammatory activity against mouse RAW264.7 cells assessed as inhibition of LPS-induced NO release preincubated for 2 hrs followed by LPS stimulation and measured after 4 hrs by RT-PCR analysis; type: functional, cell-based
[3] = AUC (0 to t) in Sprague-Dawley rat at 5 mg/kg, iv; type: ADME, organism-based; details: in vivo
[4] = C0 in Sprague-Dawley rat at 5 mg/kg, iv; type: ADME, organism-based; details: in vivo
[5] = Apparent volume of distribution in Sprague-Dawley rat at 5 mg/kg, iv; type: ADME, organism-based; details: in vivo, read-out: Vz
[6] = AUC (0 to infinity) in Sprague-Dawley rat at 10 mg/kg, po; type: ADME, organism-based; details: in vivo
[7] = Cmax in Sprague-Dawley rat at 10 mg/kg, po; type: ADME, organism-based; details: in vivo
[8] = Half life in Sprague-Dawley rat at 10 mg/kg, po; type: ADME, organism-based; details: in vivo
[9] = Tmax in Sprague-Dawley rat at 10 mg/kg, po; type: ADME, organism-based; details: in vivo
[10] = Oral bioavailability in Sprague-Dawley rat at 10 mg/kg; type: ADME, organism-based; details: in vivo
[11] = target: Cytochrome P450 2D6 (Homo sapiens, UniProt P10635); assay: Inhibition of human CYP2D6; type: ADME
Cytochrome P450 2D6, sequence (P10635 whole entry): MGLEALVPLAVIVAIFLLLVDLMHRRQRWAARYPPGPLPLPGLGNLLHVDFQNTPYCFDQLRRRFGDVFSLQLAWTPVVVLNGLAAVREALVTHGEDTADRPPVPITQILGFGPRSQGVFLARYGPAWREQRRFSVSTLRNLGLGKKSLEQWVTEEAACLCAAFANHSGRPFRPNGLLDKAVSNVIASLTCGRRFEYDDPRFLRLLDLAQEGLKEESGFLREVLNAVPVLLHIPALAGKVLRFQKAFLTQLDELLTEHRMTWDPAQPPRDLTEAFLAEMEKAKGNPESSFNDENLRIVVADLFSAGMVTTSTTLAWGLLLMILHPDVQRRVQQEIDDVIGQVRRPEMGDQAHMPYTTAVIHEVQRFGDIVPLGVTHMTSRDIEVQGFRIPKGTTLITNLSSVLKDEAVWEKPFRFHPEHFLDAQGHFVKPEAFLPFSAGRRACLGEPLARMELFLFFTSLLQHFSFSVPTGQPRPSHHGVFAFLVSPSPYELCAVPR

[12] = target: Dual specificity calcium/calmodulin-dependent 3',5'-cyclic nucleotide phosphodiesterase 1A (Homo sapiens, UniProt P54750); assay: Inhibition of PDE1A (unknown origin)
Dual specificity calcium/calmodulin-dependent 3',5'-cyclic nucleotide phosphodiesterase 1A, sequence (P54750 whole entry): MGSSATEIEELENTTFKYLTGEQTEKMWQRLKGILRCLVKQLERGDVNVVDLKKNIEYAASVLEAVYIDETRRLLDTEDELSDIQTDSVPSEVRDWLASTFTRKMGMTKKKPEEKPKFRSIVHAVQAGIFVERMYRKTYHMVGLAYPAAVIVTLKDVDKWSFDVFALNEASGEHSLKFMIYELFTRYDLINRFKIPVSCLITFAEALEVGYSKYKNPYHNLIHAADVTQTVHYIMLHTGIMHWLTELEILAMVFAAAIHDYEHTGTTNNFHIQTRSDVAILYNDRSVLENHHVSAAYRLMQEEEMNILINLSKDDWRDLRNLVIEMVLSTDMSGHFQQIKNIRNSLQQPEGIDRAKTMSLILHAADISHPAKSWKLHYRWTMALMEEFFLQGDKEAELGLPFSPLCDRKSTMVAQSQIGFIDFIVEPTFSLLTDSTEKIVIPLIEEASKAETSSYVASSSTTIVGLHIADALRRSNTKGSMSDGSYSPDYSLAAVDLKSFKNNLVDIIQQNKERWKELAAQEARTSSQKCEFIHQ

[13] = target: cGMP-dependent 3',5'-cyclic phosphodiesterase (Homo sapiens, UniProt O00408); assay: Inhibition of PDE2A (unknown origin)
cGMP-dependent 3',5'-cyclic phosphodiesterase, sequence (O00408 whole entry): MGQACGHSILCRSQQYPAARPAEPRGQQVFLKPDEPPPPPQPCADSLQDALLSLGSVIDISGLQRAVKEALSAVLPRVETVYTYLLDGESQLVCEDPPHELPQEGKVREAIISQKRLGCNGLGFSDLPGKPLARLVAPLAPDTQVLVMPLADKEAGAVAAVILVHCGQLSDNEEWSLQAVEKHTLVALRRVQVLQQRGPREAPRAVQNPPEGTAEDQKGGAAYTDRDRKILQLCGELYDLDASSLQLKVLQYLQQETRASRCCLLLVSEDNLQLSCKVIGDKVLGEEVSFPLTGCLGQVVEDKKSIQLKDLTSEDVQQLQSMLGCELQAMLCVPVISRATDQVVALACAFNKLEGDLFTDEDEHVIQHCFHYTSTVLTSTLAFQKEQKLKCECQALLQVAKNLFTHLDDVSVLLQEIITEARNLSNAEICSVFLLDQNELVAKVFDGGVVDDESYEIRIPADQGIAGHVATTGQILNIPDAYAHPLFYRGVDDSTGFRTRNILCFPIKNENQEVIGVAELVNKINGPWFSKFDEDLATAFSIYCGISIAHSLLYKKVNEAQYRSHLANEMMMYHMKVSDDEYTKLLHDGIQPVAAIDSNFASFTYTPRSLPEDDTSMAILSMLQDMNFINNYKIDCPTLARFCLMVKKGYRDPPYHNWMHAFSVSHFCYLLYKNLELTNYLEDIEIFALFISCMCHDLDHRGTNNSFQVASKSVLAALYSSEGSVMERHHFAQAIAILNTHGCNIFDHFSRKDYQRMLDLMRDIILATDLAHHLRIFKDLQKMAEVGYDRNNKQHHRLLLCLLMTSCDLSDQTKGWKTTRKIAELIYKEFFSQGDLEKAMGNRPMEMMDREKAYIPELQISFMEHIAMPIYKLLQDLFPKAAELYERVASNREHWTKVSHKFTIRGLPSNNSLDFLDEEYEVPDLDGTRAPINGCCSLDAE

[14] = target: cGMP-inhibited 3',5'-cyclic phosphodiesterase 3A (Homo sapiens, UniProt Q14432); assay: Inhibition of PDE3A (unknown origin)
cGMP-inhibited 3',5'-cyclic phosphodiesterase 3A, sequence (Q14432 whole entry): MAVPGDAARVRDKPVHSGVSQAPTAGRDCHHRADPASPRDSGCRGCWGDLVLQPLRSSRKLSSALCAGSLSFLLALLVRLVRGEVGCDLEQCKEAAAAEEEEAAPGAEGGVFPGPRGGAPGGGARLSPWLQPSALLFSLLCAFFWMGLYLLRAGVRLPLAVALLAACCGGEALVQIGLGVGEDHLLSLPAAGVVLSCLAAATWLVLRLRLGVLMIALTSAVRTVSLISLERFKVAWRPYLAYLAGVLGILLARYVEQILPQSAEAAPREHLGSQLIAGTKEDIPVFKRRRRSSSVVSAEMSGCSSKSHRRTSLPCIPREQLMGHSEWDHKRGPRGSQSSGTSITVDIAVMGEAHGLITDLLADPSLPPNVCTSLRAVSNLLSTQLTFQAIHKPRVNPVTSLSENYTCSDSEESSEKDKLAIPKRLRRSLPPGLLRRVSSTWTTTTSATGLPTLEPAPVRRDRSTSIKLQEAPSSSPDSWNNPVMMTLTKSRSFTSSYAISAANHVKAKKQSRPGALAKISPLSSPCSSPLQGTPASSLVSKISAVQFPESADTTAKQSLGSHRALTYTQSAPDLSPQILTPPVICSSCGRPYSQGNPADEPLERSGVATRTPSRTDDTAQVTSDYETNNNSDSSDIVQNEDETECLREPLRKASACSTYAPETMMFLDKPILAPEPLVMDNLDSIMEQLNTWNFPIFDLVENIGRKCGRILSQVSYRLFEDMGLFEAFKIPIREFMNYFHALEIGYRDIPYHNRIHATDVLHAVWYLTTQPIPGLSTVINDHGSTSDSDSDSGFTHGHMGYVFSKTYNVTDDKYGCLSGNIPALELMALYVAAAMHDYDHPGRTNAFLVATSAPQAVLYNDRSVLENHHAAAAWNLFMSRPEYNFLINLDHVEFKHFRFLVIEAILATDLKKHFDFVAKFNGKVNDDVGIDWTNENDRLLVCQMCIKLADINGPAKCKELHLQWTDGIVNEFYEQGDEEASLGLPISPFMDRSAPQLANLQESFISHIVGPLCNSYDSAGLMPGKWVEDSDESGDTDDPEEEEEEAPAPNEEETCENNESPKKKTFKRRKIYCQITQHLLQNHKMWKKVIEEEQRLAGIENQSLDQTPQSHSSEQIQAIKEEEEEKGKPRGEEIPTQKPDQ

[15] = target: Dual 3',5'-cyclic-AMP and -GMP phosphodiesterase 11A (Homo sapiens, UniProt Q9HCR9); assay: Inhibition of PDE11A (unknown origin)
Dual 3',5'-cyclic-AMP and -GMP phosphodiesterase 11A, sequence (Q9HCR9 whole entry): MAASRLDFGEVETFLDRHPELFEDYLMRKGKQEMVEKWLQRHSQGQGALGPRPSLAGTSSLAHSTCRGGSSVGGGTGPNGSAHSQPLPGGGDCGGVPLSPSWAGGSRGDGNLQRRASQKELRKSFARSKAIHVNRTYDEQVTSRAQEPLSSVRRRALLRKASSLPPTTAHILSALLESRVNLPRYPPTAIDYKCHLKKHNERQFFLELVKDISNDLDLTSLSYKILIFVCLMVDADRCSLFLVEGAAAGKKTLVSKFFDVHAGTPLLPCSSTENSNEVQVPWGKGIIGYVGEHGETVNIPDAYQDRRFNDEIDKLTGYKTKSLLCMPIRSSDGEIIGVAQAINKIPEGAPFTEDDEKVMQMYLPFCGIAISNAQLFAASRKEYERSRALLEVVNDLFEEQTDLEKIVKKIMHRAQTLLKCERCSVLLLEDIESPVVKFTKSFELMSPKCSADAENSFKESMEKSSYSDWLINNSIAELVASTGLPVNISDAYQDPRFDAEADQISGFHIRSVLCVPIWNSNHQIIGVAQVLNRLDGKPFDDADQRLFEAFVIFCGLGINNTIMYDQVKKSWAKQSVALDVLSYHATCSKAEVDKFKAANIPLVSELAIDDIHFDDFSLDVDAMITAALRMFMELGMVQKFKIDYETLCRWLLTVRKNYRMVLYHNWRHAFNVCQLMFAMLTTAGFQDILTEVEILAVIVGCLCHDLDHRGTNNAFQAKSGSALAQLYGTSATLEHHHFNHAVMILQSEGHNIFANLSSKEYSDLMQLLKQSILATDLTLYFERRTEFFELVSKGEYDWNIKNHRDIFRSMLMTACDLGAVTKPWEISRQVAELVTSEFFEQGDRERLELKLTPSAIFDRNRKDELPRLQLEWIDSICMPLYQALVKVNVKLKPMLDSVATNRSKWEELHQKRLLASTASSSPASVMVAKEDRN

[16] = test system: Rattus norvegicus; assay: Antiinflammatory activity against male Sprague-Dawley rat pressure ulcer model assessed as wound healing rate at 0.625% administration as ointment measured after 7 days (reference value: 70%); type: functional; details: time 7 day
[17] = test system: Rattus norvegicus; assay: Antiinflammatory activity against male Sprague-Dawley rat pressure ulcer model assessed as wound healing rate at 1.25% administration as ointment measured after 7 days (reference value: 70%); type: functional; details: time 7 day
[18] = test system: Rattus norvegicus; assay: Antiinflammatory activity against male Sprague-Dawley rat pressure ulcer model assessed as appearance of orderly arranged cells at 0.625 to 2.5% administered as ointment by H and E staining based analysis; type: functional, organism-based
[19] = test system: Rattus norvegicus; assay: Antiinflammatory activity against male Sprague-Dawley rat pressure ulcer model assessed as decrease in inflammatory cells in dermis at 0.625 to 2.5% administered as ointment by Masson staining based analysis; type: functional, organism-based
[20] = species on record: Rattus norvegicus; assay: Antiinflammatory activity against male Sprague-Dawley rat pressure ulcer model assessed as increase in CREB phosphorylation expression by immunohistochemical staining based analysis; type: functional, organism-based
[21] = test system: RAW264.7; assay: Antiinflammatory activity against LPS induced mouse RAW264.7 cells assessed as increase in CREB phosphorylation expression at 5 to 20 uM by Western blot analysis; type: functional, cell-based; details: dose 5-20 µM
[22] = test system: RAW264.7; assay: Antiinflammatory activity against LPS induced mouse RAW264.7 cells assessed as increase in CREB phosphorylation expression at 5 to 20 uM by immunofluorescence analysis; type: functional, cell-based; details: dose 5-20 µM
[23] = Acute toxicity in female Kunming mouse assessed as effect on weight at 500 to 4000 mg/kg measured after 14 days; type: organism-based; details: in vivo, 336 h, dose 500-4000 mg/kg, time 14 day
[24] = Acute toxicity in male Kunming mouse assessed as effect on pathological changes in heart at 500 to 4000 mg/kg measured after 14 days by H and E staining based analysis; type: organism-based; details: in vivo, 336 h, dose 500-4000 mg/kg, time 14 day
[25] = Acute toxicity in male Kunming mouse assessed as effect on pathological changes in spleen at 500 to 4000 mg/kg measured after 14 days by H and E staining based analysis; type: organism-based; details: in vivo, 336 h, dose 500-4000 mg/kg, time 14 day
[26] = Acute toxicity in female Kunming mouse assessed as effect on pathological changes in heart at 500 to 4000 mg/kg measured after 14 days by H and E staining based analysis; type: organism-based; details: in vivo, 336 h, dose 500-4000 mg/kg, time 14 day
[27] = Acute toxicity in female Kunming mouse assessed as effect on pathological changes in kidney at 500 to 4000 mg/kg measured after 14 days by H and E staining based analysis; type: organism-based; details: in vivo, 336 h, dose 500-4000 mg/kg, time 14 day

3',5'-cyclic-AMP phosphodiesterase 4D, sequence (Q08499 whole entry): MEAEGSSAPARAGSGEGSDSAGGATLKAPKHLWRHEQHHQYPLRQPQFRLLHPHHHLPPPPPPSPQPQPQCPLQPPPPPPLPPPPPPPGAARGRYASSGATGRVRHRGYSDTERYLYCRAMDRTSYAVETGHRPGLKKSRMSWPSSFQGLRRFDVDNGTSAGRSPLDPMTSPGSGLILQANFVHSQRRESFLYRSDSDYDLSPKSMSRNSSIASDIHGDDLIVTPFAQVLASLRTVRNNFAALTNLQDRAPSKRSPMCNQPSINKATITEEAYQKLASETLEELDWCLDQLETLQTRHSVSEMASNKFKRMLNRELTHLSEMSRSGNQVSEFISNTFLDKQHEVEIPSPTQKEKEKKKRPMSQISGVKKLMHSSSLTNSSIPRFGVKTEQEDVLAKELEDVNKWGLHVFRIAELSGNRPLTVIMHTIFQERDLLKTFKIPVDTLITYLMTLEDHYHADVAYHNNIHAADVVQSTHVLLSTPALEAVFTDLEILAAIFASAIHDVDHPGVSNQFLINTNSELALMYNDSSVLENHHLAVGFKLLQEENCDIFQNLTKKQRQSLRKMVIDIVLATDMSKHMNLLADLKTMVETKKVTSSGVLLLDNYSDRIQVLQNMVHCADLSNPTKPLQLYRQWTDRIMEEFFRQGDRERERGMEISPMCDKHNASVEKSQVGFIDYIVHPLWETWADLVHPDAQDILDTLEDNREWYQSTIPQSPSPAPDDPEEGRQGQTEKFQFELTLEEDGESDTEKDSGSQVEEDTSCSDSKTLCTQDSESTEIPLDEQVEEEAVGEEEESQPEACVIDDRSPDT

Compound: Cn1c(=O)c2c(ncn2CCC(=O)NNC(=O)c2cc3nccc(-c4ccc(OC(F)F)c(OCC5CC5)c4)n3n2)n(C)c1=O
- IC50 [1]: 29 nM
- IC50 [2]: 2320 nM
- AUC(0-t) [3]: 235 ng·h/mL
- C0 [4]: 1140 ng/mL
- Vd [5]: 8.79 L/kg
- AUC(0-inf) [6]: 26.8 ng·h/mL
- Cmax [7]: 14.4 ng/mL
- half-life [8]: 84 min
- Tmax [9]: 15 min
- bioavailability [10]: 5.5%
- IC50 [11]: > 50 µM
- IC50 [12]: > 50 µM
- IC50 [13]: > 50 µM
- IC50 [14]: > 50 µM
- IC50 [15]: > 50 µM
- Activity [16]: 78%
- Activity [17]: 93%
- Activity [18]: Active
- Activity [19]: Active
- Activity [20]: Active
- Activity [21]: Active
- Activity [22]: Active
- Activity [23]: Non-toxic
- Activity [24]: Non-toxic
- Activity [25]: Non-toxic
- Activity [26]: Non-toxic
- Activity [27]: Non-toxic
